pEC50: −log10 of the molar value.
Legend:
Assay type in all cases: cell-based
Conditions in all cases: fluorescent calcium assay
TRPML1 = TRPML1 (Homo sapiens, UniProt Q9GZU1); test: Fluorescent TRPML1 assay (Fluo4-AM calcium fluorescence in doxycycline-induced HEK-293 Trex cells)
Procedure, shortened: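 EC50 values come from non-linear regression of percent activity, normalized to on-plate positive and negative controls, with fluorescence read at 480 nm excitation and 540 nm emission. Fluo4-AM-loaded (1 µM) doxycycline-induced HEK-293 Trex cells expressing mutated human TRPML1 were exposed in 10 mM calcium Ringer's to 6 nM–20 µM compound, in triplicate.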

TRPML3 = target: T1, TRPML3 (Homo sapiens, UniProt Q8TDD5); test: Fluorescent TRPML3 assay (performed as for TRPML1, substituting the TRPML3 subtype)
T1 construct: expressed in transfected cells
T1 sequence (Q8TDD5 1-553): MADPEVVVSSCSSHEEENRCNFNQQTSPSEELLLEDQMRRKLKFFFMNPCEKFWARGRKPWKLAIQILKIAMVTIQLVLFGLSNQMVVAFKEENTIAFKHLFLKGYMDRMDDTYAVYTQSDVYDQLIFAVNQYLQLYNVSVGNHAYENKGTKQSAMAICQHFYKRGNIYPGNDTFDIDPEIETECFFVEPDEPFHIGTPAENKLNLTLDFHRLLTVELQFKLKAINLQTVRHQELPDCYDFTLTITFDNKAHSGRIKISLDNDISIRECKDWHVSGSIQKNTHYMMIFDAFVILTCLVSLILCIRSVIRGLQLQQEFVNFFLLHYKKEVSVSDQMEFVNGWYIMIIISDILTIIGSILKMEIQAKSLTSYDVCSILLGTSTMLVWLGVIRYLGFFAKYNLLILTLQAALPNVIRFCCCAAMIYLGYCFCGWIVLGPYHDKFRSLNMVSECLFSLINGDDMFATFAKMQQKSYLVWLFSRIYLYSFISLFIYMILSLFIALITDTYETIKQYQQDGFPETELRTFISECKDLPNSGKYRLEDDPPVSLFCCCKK
Procedure, shortened: (§1)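 Agonist activity is scored as percent of plate controls from Fluo4 fluorescence after dye-loaded, doxycycline-induced HEK-293 Trex cells meet compound in high-calcium (10 mM) Ringer's. Compounds run in half-log dilutions from 20 micromolar final, in triplicate.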

TRPML2 = target: T2, TRPML2 (Homo sapiens, UniProt Q8IZK6); test: Fluorescent TRPML2 assay (performed as for TRPML1, substituting the TRPML2 subtype)
T2 construct: expressed in transfected cells
T2 sequence (Q8IZK6 1-566): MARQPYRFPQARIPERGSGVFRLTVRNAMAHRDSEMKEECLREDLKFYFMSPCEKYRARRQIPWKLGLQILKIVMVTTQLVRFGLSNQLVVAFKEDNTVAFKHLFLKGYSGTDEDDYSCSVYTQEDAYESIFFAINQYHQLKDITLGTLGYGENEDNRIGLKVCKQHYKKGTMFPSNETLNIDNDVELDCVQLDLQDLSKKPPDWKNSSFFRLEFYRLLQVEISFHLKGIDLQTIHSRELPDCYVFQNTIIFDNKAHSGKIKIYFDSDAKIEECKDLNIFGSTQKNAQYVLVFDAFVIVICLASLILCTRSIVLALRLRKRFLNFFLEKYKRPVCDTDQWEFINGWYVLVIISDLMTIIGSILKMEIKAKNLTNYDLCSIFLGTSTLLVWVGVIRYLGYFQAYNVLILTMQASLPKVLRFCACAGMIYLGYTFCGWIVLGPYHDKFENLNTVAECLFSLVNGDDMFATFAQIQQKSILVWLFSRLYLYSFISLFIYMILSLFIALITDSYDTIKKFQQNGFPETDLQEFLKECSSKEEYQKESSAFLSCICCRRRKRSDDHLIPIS
Procedure, shortened: as §1

TRPML1, sequence (Q9GZU1 whole entry L15A/L16A/L577A/L578A, form open): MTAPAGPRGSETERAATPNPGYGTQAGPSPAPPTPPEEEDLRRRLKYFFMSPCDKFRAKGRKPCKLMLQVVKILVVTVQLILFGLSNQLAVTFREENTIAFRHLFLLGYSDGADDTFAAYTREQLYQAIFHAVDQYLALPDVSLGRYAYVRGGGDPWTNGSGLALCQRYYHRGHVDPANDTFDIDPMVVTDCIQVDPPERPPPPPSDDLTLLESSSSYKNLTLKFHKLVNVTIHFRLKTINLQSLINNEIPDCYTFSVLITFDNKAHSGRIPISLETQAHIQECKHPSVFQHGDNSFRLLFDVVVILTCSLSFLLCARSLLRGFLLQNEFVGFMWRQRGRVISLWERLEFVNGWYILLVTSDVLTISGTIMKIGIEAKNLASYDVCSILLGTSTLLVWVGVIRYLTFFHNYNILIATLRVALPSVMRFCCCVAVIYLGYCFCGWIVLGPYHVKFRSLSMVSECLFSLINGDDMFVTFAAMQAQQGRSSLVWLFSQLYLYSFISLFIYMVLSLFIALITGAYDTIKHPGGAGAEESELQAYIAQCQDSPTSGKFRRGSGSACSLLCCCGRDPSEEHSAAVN

pEC50 (TRPML1) | pEC50 (TRPML3) | pEC50 (TRPML2) | SMILES
> 7.00 | > 7.00 | 6.30 to 7.00 | C[C@H]1CN(C(=O)OC(C)(C)C)CCN1c1ncnc2c1c(C1CC1)cn2-c1cccc(C#N)c1 [Compound 200, tert-butyl (S)-4-(7-(3-cyanophenyl)-5-cyclopropyl-7H-pyrrolo[2,3-d]pyrimidin-4-yl)-3-methylpiperazine-1-carboxylate]
6.30 to 7.00 | 6.30 to 7.00 | 5.70 to 6.30 | COc1cccc(-n2cc(C3CC3)c3c(N4CCN(C(=O)OC(C)(C)C)C[C@H]4C)ncnc32)c1 [Compound 201, tert-butyl (R)-4-(5-cyclopropyl-7-(3-methoxyphenyl)-7H-pyrrolo[2,3-d]pyrimidin-4-yl)-3-methylpiperazine-1-carboxylate]
6.30 to 7.00 | 6.30 to 7.00 | 5.70 to 6.30 | COc1cccc(-n2cc(C3CC3)c3c(N4CCN(C(=O)OC(C)(C)C)C[C@@H]4C)ncnc32)c1 [Compound 202, tert-butyl (S)-4-(5-cyclopropyl-7-(3-methoxyphenyl)-7H-pyrrolo[2,3-d]pyrimidin-4-yl)-3-methylpiperazine-1-carboxylate]
> 7.00 | > 7.00 | 6.30 to 7.00 | C[C@H]1CN(C(=O)OC(C)(C)C)CCN1c1ncnc2c1c(C1CC1)cn2-c1cc(F)cc(F)c1 [Compound 203, tert-butyl (S)-4-(5-cyclopropyl-7-(3,5-difluorophenyl)-7H-pyrrolo[2,3-d]pyrimidin-4-yl)-3-methylpiperazine-1-carboxylate]
> 7.00 | > 7.00 | 6.30 to 7.00 | C[C@@H]1CN(c2ncnc3c2c(C2CC2)cn3-c2cc(F)c(F)c(F)c2)CCN1C(=O)OC(C)(C)C [Compound 204, tert-butyl (R)-4-(5-cyclopropyl-7-(3,4,5-trifluorophenyl)-7H-pyrrolo[2,3-d]pyrimidin-4-yl)-2-methylpiperazine-1-carboxylate]

Second part, the compound before the results:

SMILES | pEC50 (TRPML1) | pEC50 (TRPML3) | pEC50 (TRPML2)
C[C@@H]1CN(C(=O)OC(C)(C)C)CCN1c1ncnc2c1c(C1CC1)cn2-c1cccc(OC(F)(F)F)c1 [Compound 195, tert-butyl (R)-4-(5-cyclopropyl-7-(3-(trifluoromethoxy)phenyl)-7H-pyrrolo[2,3-d]pyrimidin-4-yl)-3-methylpiperazine-1-carboxylate] | 6.30 to 7.00 | > 7.00 | 6.30 to 7.00
C[C@H]1CN(C(=O)OC(C)(C)C)CCN1c1ncnc2c1c(C1CC1)cn2-c1cccc(OC(F)(F)F)c1 [Compound 196, tert-butyl (S)-4-(5-cyclopropyl-7-(3-(trifluoromethoxy)phenyl)-7H-pyrrolo[2,3-d]pyrimidin-4-yl)-3-methylpiperazine-1-carboxylate] | > 7.00 | > 7.00 | 6.30 to 7.00
C[C@@H]1CN(C(=O)OC(C)(C)C)CCN1c1ncnc2c1c(C1CC1)cn2-c1cccc(OC(F)F)c1 [Compound 197, tert-butyl (R)-4-(5-cyclopropyl-7-(3-(difluoromethoxy)phenyl)-7H-pyrrolo[2,3-d]pyrimidin-4-yl)-3-methylpiperazine-1-carboxylate] | 6.30 to 7.00 | 6.30 to 7.00 | 6.30 to 7.00
C[C@H]1CN(C(=O)OC(C)(C)C)CCN1c1ncnc2c1c(C1CC1)cn2-c1cccc(OC(F)F)c1 [Compound 198, tert-butyl (S)-4-(5-cyclopropyl-7-(3-(difluoromethoxy)phenyl)-7H-pyrrolo[2,3-d]pyrimidin-4-yl)-3-methylpiperazine-1-carboxylate] | > 7.00 | > 7.00 | 6.30 to 7.00
C[C@@H]1CN(C(=O)OC(C)(C)C)CCN1c1ncnc2c1c(C1CC1)cn2-c1cccc(C#N)c1 [Compound 199, tert-butyl (R)-4-(7-(3-cyanophenyl)-5-cyclopropyl-7H-pyrrolo[2,3-d]pyrimidin-4-yl)-3-methylpiperazine-1-carboxylate] | 6.30 to 7.00 | 6.30 to 7.00 | 6.30 to 7.00

Reference: patent publication US20250136606A1, “MODULATORS OF TRPML, THEIR COMPOSITIONS AND METHODS OF USE” (Caraway Therapeutics, Inc., priority 2021, published 2025)
